# Reference: ChEMBL document CHEMBL1201862, “PubChem BioAssay data set” (2004)
#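 How tested: cells in 96-well plates exposed to compound for 48 hours at five concentrations. At the GI50, growth is halved.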 Calls of active or inactive are those of the source. No stated cut-off is given here; in the data, active = GI50 up to about 1.1 µM and inactive = higher.
# Tests used:
# Experiment in all cases: NCI tumour cell line growth inhibition, 48 h
# NCI-H522 = test system: NCI-H522
# HCC 2998 = test system: HCC 2998
# OVCAR-4 = test system: OVCAR-4
# SN12C = test system: SN12C
# KM12 = test system: KM12
# 786-0 = test system: 786-0
# SF-295 = test system: SF-295
# SK-MEL-5 = test system: SK-MEL-5
# UO-31 = test system: UO-31
# HOP-92 = test system: HOP-92
# MCF7 = test system: MCF7
# OVCAR-5 = test system: OVCAR-5
# A498 = test system: A498
# HCT-15 = test system: HCT-15
# SK-OV-3 = test system: SK-OV-3
# COLO 205 = test system: COLO 205
# HCT-116 = test system: HCT-116
# PC-3 = test system: PC-3
# CCRF-CEM = test system: CCRF-CEM
# NCI-H23 = test system: NCI-H23
SMILES,GI50 (NCI-H522),GI50 (HCC 2998),GI50 (OVCAR-4),GI50 (SN12C),GI50 (KM12),GI50 (786-0),GI50 (SF-295),GI50 (SK-MEL-5),GI50 (UO-31),GI50 (HOP-92),GI50 (MCF7),GI50 (OVCAR-5),GI50 (A498),GI50 (HCT-15),GI50 (SK-OV-3),GI50 (COLO 205),GI50 (HCT-116),GI50 (PC-3),GI50 (CCRF-CEM),GI50 (NCI-H23)
COc1cccc2c1C(=O)c1c(O)c3c(c(O)c1C2=O)C[C@@](O)(C(=O)CO)C[C@@H]3OC1CC2C(OCN3CN2COC2C(C)OC(O[C@H]4C[C@](O)(C(=O)CO)Cc5c(O)c6c(c(O)c54)C(=O)c4c(OC)cccc4C6=O)CC23)C(C)O1 (some centres undefined),0.0218 µM (active),0.0274 µM (active),0.237 µM (active),0.0231 µM (active),0.0635 µM (active),0.02 µM (active),0.0498 µM (active),0.0614 µM (active),0.139 µM (active),0.0308 µM (active),0.0179 µM (active),0.131 µM (active),0.0559 µM (active),0.161 µM,0.0681 µM (active),0.0614 µM (active),0.0289 µM (active),0.0929 µM (active),0.00916 µM (active),0.027 µM (active)
CC(C)C1=CC23CCC4C(C)(C(=O)O)CCCC4(C)C2CC1C1C(=O)N(c2ccccc2N2C(=O)C4C5CC6C7(C)CCCC(C)(C(=O)O)C7CCC6(C=C5C(C)C)C4C2=O)C(=O)C13 (centres undefined),8.73 µM (inactive),4.01 µM (inactive),18 µM (inactive),9.06 µM (inactive),3.09 µM (inactive),14.4 µM (inactive),,5.83 µM (inactive),18.2 µM (inactive),17.9 µM (inactive),3.66 µM (inactive),12.2 µM (inactive),2.93 µM (inactive),14.3 µM,,4.57 µM (inactive),5.77 µM (inactive),3.23 µM (inactive),4.39 µM (inactive),2.47 µM (inactive)
O=c1c2cccnc2[nH]c2ccc3scnc3c12,> 10 µM (inactive),> 10 µM (inactive),9.35 µM (inactive),6.24 µM (inactive),6.7 µM (inactive),5.58 µM (inactive),> 10 µM (inactive),7.01 µM (inactive),,8.17 µM (inactive),> 10 µM (inactive),> 10 µM (inactive),7.62 µM (inactive),4.92 µM,> 10 µM (inactive),5.12 µM (inactive),3.3 µM (inactive),> 10 µM (inactive),5.27 µM (inactive),> 10 µM (inactive)
COc1ccc(/C=C\c2cc(OC)c(OC)c(OC)c2)cc1OC(=O)CC(N)C(=O)O (centres undefined),0.00132 µM (active),0.106 µM (active),0.189 µM (active),0.00521 µM (active),0.00365 µM (active),0.0111 µM (active),0.0021 µM (active),,0.00759 µM (active),0.00052 µM (active),0.00733 µM (active),0.327 µM (active),0.00269 µM (active),0.00258 µM,0.00423 µM (active),0.635 µM (active),0.00103 µM (active),0.000776 µM (active),0.000418 µM (active),0.0021 µM (active)
CC1(C)CC(=O)C2=C(C1)NC(SCC(=O)O)=C(C#N)C2c1ccc(Br)cc1 (centres undefined),86.5 µM (inactive),> 100 µM (inactive),> 100 µM (inactive),,> 100 µM (inactive),> 100 µM (inactive),> 100 µM (inactive),> 100 µM (inactive),4.56 µM (inactive),27.4 µM (inactive),> 100 µM (inactive),> 100 µM (inactive),> 100 µM (inactive),> 100 µM,> 100 µM (inactive),> 100 µM (inactive),> 100 µM (inactive),> 100 µM (inactive),> 100 µM (inactive),> 100 µM (inactive)
CC(C)(C)C1CC[C@H](O)[C@H]([C@@H](O)CC2CC(=O)N(c3ccccc3)C(=O)C2)C1 (some centres undefined),> 100 µM (inactive),27.9 µM (inactive),57.5 µM (inactive),> 100 µM (inactive),47.5 µM (inactive),> 100 µM (inactive),> 100 µM (inactive),45.2 µM (inactive),76.4 µM (inactive),23.3 µM (inactive),44.2 µM (inactive),> 100 µM (inactive),> 100 µM (inactive),56.4 µM,,,60.5 µM (inactive),91.8 µM (inactive),51.9 µM (inactive),> 100 µM (inactive)
COc1ccc(-c2c(C#N)c(O)n(NS(=O)(=O)c3ccc(C)cc3)c(=O)c2C#N)cc1,13.8 µM (inactive),45.9 µM (inactive),81.5 µM (inactive),> 100 µM (inactive),> 100 µM (inactive),67.1 µM (inactive),75 µM (inactive),42.1 µM (inactive),,4.71 µM (inactive),48.6 µM (inactive),> 100 µM (inactive),57.1 µM (inactive),49.1 µM,> 100 µM (inactive),> 100 µM (inactive),56 µM (inactive),71.4 µM (inactive),33.4 µM (inactive),
CCC(C)c1cnc(CC(C)C)c(=O)[nH]1 (centres undefined),,> 100 µM (inactive),> 100 µM (inactive),> 100 µM (inactive),> 100 µM (inactive),> 100 µM (inactive),> 100 µM (inactive),> 100 µM (inactive),> 100 µM (inactive),> 100 µM (inactive),> 100 µM (inactive),> 100 µM (inactive),> 100 µM (inactive),> 100 µM,> 100 µM (inactive),> 100 µM (inactive),> 100 µM (inactive),> 100 µM (inactive),89.5 µM (inactive),> 100 µM (inactive)
CCc1[nH]nc(C(N)=O)c1/N=N/N(C)C,37.3 µM (inactive),> 100 µM (inactive),> 100 µM (inactive),44 µM (inactive),56.5 µM (inactive),89.7 µM (inactive),39.7 µM (inactive),70 µM (inactive),2.58 µM (inactive),36.4 µM (inactive),30.9 µM (inactive),,> 100 µM (inactive),68.4 µM,91.6 µM (inactive),98.9 µM (inactive),72.1 µM (inactive),> 100 µM (inactive),28.2 µM (inactive),54.1 µM (inactive)
O=C(Cc1ccccc1)N/N=C(/CCN1CCCC1)CC(c1ccccc1)c1c(O)c2ccccc2oc1=O (centres undefined),59 µM (inactive),95.1 µM (inactive),> 100 µM (inactive),,> 100 µM (inactive),> 100 µM (inactive),,> 100 µM (inactive),> 100 µM (inactive),31.6 µM (inactive),22 µM (inactive),> 100 µM (inactive),28 µM (inactive),72.4 µM,> 100 µM (inactive),23.9 µM (inactive),80.2 µM (inactive),> 100 µM (inactive),48.9 µM (inactive),55.7 µM (inactive)
C/C=C/C(C#N)(/C=C/c1ccccc1)OP1(=O)OC(c2ccccc2)C(C)N1C (centres undefined),20.7 µM (inactive),14 µM (inactive),,19.2 µM (inactive),19 µM (inactive),17.1 µM (inactive),16.3 µM (inactive),16.9 µM (inactive),17.8 µM (inactive),14.6 µM (inactive),22.8 µM (inactive),20.1 µM (inactive),20.1 µM (inactive),,25.8 µM (inactive),17.2 µM (inactive),16.6 µM (inactive),17 µM (inactive),11 µM (inactive),
